# Read-outs that look alike come from different tables or passages of the source.
# Columns and labels:
# [1] = cited from earlier work
# T47D cells = assay: Proliferation assay (Cell Titer-Glo), T47D; assay type: cell-based, human
# Protocol: (§1) Cells were seeded in duplicate or triplicate at 1500 to 5000 cells per well in 96 well plates, Opaque-walled 96-well plates with clear bottom: 96-well, Black/Clear, Flat bottom with lid, FALCON, 353219 in reduced serum conditions at either 3% v/v FBS or 1% v/v FBS. The day after plating recombinant HRGβ1 was added to yield a final concentration of 10 nM. Control wells received media without HRGβ1. Plates were then incubated for the indicated time period of 4 to 6 days at 37° C. in a humid atmosphere with 95% air, 5% CO2.
# (§2) The day after plating recombinant HRGβ1 was added to yield a final concentration of 10 nM. Control wells received media without HRGβ1. […] Where indicated CDK inhibitors were added at 10 μM and dilutions were performed to generate a dose-response curve with 2 controls wells per row. Plates were then incubated for the indicated time period of 4 to 6 days at 37° C. in a humid atmosphere with 95% air, 5% CO2. Growth inhibition was calculated as a function of the relative inhibition or proliferation of cells treated with either growth factor or antagonists to cells treated with diluent only, over the same time period.
# (§3) The day after plating recombinant HRGβ1 was added to yield a final concentration of 10 nM. Control wells received media without HRGβ1. […] Where indicated CDK inhibitors were added at 10 μM and dilutions were performed to generate a dose-response curve with 2 controls wells per row. Plates were then incubated for the indicated time period of 4 to 6 days at 37° C. in a humid atmosphere with 95% air, 5% CO2.
# (§4) To measure proliferation, Cell Titer-Glo (CTG) assays were performed as per manufacturer's instructions. Specifically, reagent-1 and reagent-2 were equilibrated to room temperature at which point reagent-1 was added to reagent-2 and mixed by vortex. Test plates containing cells were equilibrated to room temperature for 30 minutes at which point an equal volume of CTG reagent was added to each well of the test plate, typically 100 μl to give a final volume of 200 μl per well. Each plate was then sealed with a foil plate sealer and mixed on an orbital shaker for 10 minutes to lyse cells and release cellular ATP. Following mixing plates were incubated at room temperature for 15 minutes to stabilize the luminescent signal. Data was collected by measuring relative luminescence on a Synergy H1 plate reader using the luminescence program. Growth was calculated and expressed as a relative value to the unstimulated control wells on each individual plate. Growth inhibition was calculated as a function of the relative inhibition of cells treated with antagonists to the growth of cells treated with diluent only, over the same time period. Data was then plotted using GraphPad Prism software.
# RB = RB phosphorylation (S807/811, S780) by Western blotting in MCF7 cells; assay type: cell-based, human; conditions: for RB phosphorylation / activation: MCF7, 20-24 hours, HRG 10 nM, fulvestrant 50 nM, palbociclib, abemaciclib 40 nM
# Protocol: MCF7 cells were cultured as described above. […] Cellular lysates were prepared by lysis in MPER lysis buffer with the addition of protease and phosphatase inhibitors for 30 mins on ice. Cellular debris were removed by centrifugation at 10,000 rpm. Proteins were analyzed by Western blotting according to standard protocols. Protein loading was estimated by blotting with a β-actin antibody (β-Actin (13E5) Rabbit mAb #4970 Cell Signal) and RB activation was measured by detection of phosphorylation of RB (pRB) at pRb (S807/811): Cat #8516 pRb (S780): Cat #8180. Control antibodies as follows total AKT: Cat #9272 pAKT: Cat #4060.
# MCF7 cells [2] = assay: Cell cycle / S-phase by EdU incorporation and flow cytometry in MCF7 cells; assay type: cell-based, human
# Protocol: FIG. 13 is a representative FACS plot of the cell cycle distribution. The gate settings and percentage for cells in G0/G1, S and G2/M phases are indicated. DNA synthesis (S-phase) was determined by quantifying cells positive for both EdU incorporation and DNA content.
# CDK2 = CDK2 activation (phospho-Thr160) by Western blotting in MCF7 cells; assay type: cell-based, human
# Protocol: Cellular lysates were prepared by lysis in MPER lysis buffer with the addition of protease and phosphatase inhibitors for 30 minutes on ice. Cellular debris was removed by centrifugation at 10,000 rpm. Proteins were analyzed by Western blotting according to standard protocols.
# MCF7 cells [3] = assay: Proliferation assay (Cell Titer-Glo), MCF7; assay type: cell-based, human; conditions: for proliferation: MCF7, single agent CDK4/6 inhibitor over a dose range
# Protocol: as §1, §2, §3, §4
# MCF-7Ca xenograft tumors = assay: MCF-7Ca xenograft model of post-menopausal ER+ breast cancer; assay type: in vivo, mice
# Protocol: A model of post-menopausal ER+ breast cancer was used to determine the effect of blocking HRG-mediated ERB3 signaling and/or estrogen-mediated ER activation on tumor growth (FIG. 16). […] Changes in mean tumor volume (±SEM) were determined weekly by caliper measurement.
# MCF7 cells [4] = assay: MCF7 orthotopic xenograft model of ER+ HER2- breast cancer; assay type: in vivo; conditions: SHO mice
# Protocol: Female SHO mice (Charles River Laboratories) aged 8-10 weeks were implanted with 17-beta-estradiol pellets (0.72 mg/pellet) and 2 days later, injected with 100 μl of 5×10^6 MCF7 cells suspended in 50% DPBS/50% matrigel into the abdominal mammary fat pad. Tumor growth was monitored twice a week and tumor volumes were calculated following external caliper measurement according to the formula (tumor size=π/6×[length×width^2]). Once the average measured tumor volume had reached approximately 200 mm^3, mice were randomized into groups and treatment was administered. Overall, the average starting tumor volume per group was equivalent across all groups. Fulvestrant was dosed at 500 μg per mouse once per week via subcutaneous delivery. Palbociclib was dosed at 25 mg/kg, orally every day for 5 days, Monday through Friday.
# ZR75-1 cells = assay: Proliferation assay (Cell Titer-Glo), ZR75-1; assay type: cell-based, human; conditions: ZR75-1, CDK4/6 inhibitor plus HRG
# Protocol: as §2
# The day after plating recombinant HRGβ1 was added to yield a final concentration of 10 nM. Control wells received media without HRGβ1. […]
# To measure proliferation, Cell Titer-Glo (CTG) assays were performed as per manufacturer's instructions. […] Data was collected by measuring relative luminescence on a Synergy H1 plate reader using the luminescence program. Growth was calculated and expressed as a relative value to the unstimulated control wells on each individual plate. Growth inhibition was calculated as a function of the relative inhibition of cells treated with antagonists to the growth of cells treated with diluent only, over the same time period. […]
molecule,measurement,setting,value
"CC(C)(C#N)c1cc(Cn2cncn2)cc(C(C)(C)C#N)c1 [anastrozole, a,a,a′,a′-Tetramethyl-5-(1H-1,2,4-triazol-1-ylmethyl)-1,3-benzenediacetonitrile]",solubility,[1]; in acetone,freely soluble
same,solubility,[1]; in acetonitrile,very soluble
same,solubility,[1]; in ethanol,freely soluble
same,solubility,[1]; in methanol,freely soluble
same,solubility,[1]; in tetrahydrofuran,freely soluble
"C[C@]12CC[C@@H]3c4ccc(O)cc4C[C@@H](CCCCCCCCC[S+]([O-])CCCC(F)(F)C(F)(F)F)[C@H]3[C@@H]1CC[C@@H]2O (stereo partly drawn) [fulvestrant, 7-alpha-[9-(4,4,5,5,5-pentafluoropentylsulphinyl)nonyl]estra-1,3,5-(10)-triene-3,17beta-diol, reference compound]",fulvestrant activity on proliferation,T47D cells; HRG present in addition to estradiol,significantly decreased
same,inhibition of estradiol induced proliferation,"T47D cells; fulvestrant 100 nM, 6 days",effective at inhibiting estradiol induced proliferation
same,RB phosphorylation / activation,RB,inhibits RB activation
same,S-phase cell cycle progression,"MCF7 cells [2]; MCF7, single agents in the absence of HRG",efficacious at inhibiting S-phase cell cycle progression
same,CDK2 activation,"CDK2; MCF7, agent alone, 20-24 hours, HRG 10 nM, fulvestrant, palbociclib, abemaciclib 100 nM",inhibited CDK2 activation
same,degree of inhibition of proliferation,"MCF7 cells [3]; MCF7, CDK4/6 inhibitor plus fulvestrant (50 nM)",greater than the activity of the CDK4/6 inhibitor alone
same,fulvestrant activity on proliferation,"MCF7 cells [3]; MCF7, HRG present in addition to estradiol",significantly decreased
same,inhibition of estradiol induced proliferation,"MCF7 cells [3]; MCF7, fulvestrant 100 nM, 6 days",effective at inhibiting estradiol induced proliferation
"CN(C)C(=O)c1cc2cnc(Nc3ccc(N4CCNCC4)cn3)nc2n1C1CCCC1 [ribociclib, 7-cyclopentyl-N,N-dimethyl-2-((5-(piperazin-1-yl)pyridin-2-yl)amino)-7H-pyrrolo[2,3-d]pyrimidine-6-carboxamide, reference compound]",proliferation,MCF7 cells [3]; 6 days,inhibited proliferation in a dose dependent manner
"CCN1CCN(Cc2ccc(Nc3ncc(F)c(-c4cc(F)c5nc(C)n(C(C)C)c5c4)n3)nc2)CC1 [abemaciclib, 2-pyrimidinamine, N-(5-((4-ethyl-1-piperazinyl)methyl)-2-pyridinyl)-5-fluoro-4-(4-fluoro-2-methyl-1-(1-methylethyl)-1H-benzimidazol-6-yl), reference compound]",RB phosphorylation / activation,RB,decrease RB activation
same,proliferation,MCF7 cells [3]; 6 days,inhibited proliferation in a dose dependent manner
"N#Cc1ccc(C(c2ccc(C#N)cc2)n2cncn2)cc1 [letrozole, 4,4′-(1H-1,2,4-Triazol-1-ylmethylene)dibenzonitrile]",tumor response,MCF-7Ca xenograft tumors; letrozole 10 μg/mouse/day x 5 days/week SQ,initially responded
same,start of development of resistance,"MCF-7Ca xenograft tumors; letrozole monotherapy, time of treatment",7-8 weeks
same,solubility,[1]; in dichloromethane,freely soluble
same,solubility,[1]; in ethanol,slightly soluble
same,solubility,[1]; in water,practically insoluble
seribantumab: human monoclonal anti-ErbB3 IgG2; heavy and light chains SEQ ID NO: 7 and 8 (antibody) heavy: EVQLLESGGGLVQPGGSLRLSCAASGFTFSHYVMAWVRQAPGKGLEWVSSISSSGGWTLYADSVKGRFTISRDNSKNTLYLQMNSLRAEDTAVYYCTRGLKMATIFDYWGQGTLVTVSSASTKGPSVFPLAPCSRSTSESTAALGCLVKDYFPEPVTVSWNSGALTSGVHTFPAVLQSSGLYSLSSVVTVPSSNFGTQTYTCNVDHKPSNTKVDKTVERKCCVECPPCPAPPVAGPSVFLFPPKPKDTLMISRTPEVTCVVVDVSHEDPEVQFNWYVDGVEVHNAKTKPREEQFNSTFRVVSVLTVVHQDWLNGKEYKCKVSNKGLPAPIEKTISKTKGQPREPQVYTLPPSREEMTKNQVSLTCLVKGFYPSDIAVEWESNGQPENNYKTTPPMLDSDGSFFLYSKLTVDKSRWQQGNVFSCSVMHEALHNHYTQKSLSLSPGK light: QSALTQPASVSGSPGQSITISCTGTSSDVGSYNVVSWYQQHPGKAPKLIIYEVSQRPSGVSNRFSGSKSGNTASLTISGLQTEDEADYYCCSYAGSSIFVIFGGGTKVTVLGQPKAAPSVTLFPPSSEELQANKATLVCLVSDFYPGAVTVAWKADGSPVKVGVETTKPSKQSNNKYAASSYLSLTPEQWKSHRSYSCRVTHEGSTVEKTVAPAECS,resistance to letrozole,MCF-7Ca xenograft tumors; co-treated with letrozole and seribantumab,substantially delayed
same,tumor growth,MCF-7Ca xenograft tumors; co-treated with letrozole and seribantumab (750 μg/mouse IP),tumor growth was inhibited
same,tumor growth of letrozole-resistant tumors,"MCF-7Ca xenograft tumors; re-randomized at week 14, letrozole and seribantumab compared to letrozole alone",significantly decreased tumor growth
same,"effect of seribantumab on activity of fulvestrant, palbociclib and abemaciclib on RB","RB; MCF7, seribantumab 1 uM, with HRG, alone or in combination",restored the activity
same,effect of seribantumab on cell cycle inhibitory activity of fulvestrant or palbociclib,"MCF7 cells [2]; MCF7, in the presence of HRG",restores this activity
same,effect of seribantumab on cell cycle inhibitory activity of the palbociclib-fulvestrant combination,"MCF7 cells [2]; MCF7, in the presence of HRG",restored this activity
same,"growth inhibition, addition of seribantumab to the combination of palbociclib and fulvestrant",MCF7 cells [4],increases the growth inhibition
same,"antitumor efficacy, addition of seribantumab to fulvestrant","MCF7 cells [4]; seribantumab 600 μg twice per week IP, fulvestrant 500 μg once per week SC",increased the antitumor efficacy
same,"antitumor efficacy, addition of seribantumab to palbociclib","MCF7 cells [4]; seribantumab 600 μg twice per week IP, palbociclib 25 mg/kg orally",increased the antitumor efficacy
same,effect of adding seribantumab on CDK4/6 inhibitor activity,ZR75-1 cells,restored sensitivity
same,effect on HRG-induced CDK2 activation,"CDK2; MCF7, in the presence of fulvestrant or CDK4/6 inhibitors palbociclib and abemaciclib",blocked HRG mediated activation of CDK2
same,effect on HRG-induced CDK2 activation,"CDK2; MCF7, seribantumab 1 uM, HRG 10 nM",can block the activating effect of HRG on CDK2 activation
same,effect of adding seribantumab on CDK4/6 inhibitor activity,"MCF7 cells [3]; MCF7, CDK4/6 inhibitor plus HRG 10 nM",restored CDK inhibitory activity
same,effect of adding seribantumab on the CDK4/6 inhibitor-fulvestrant combination,"MCF7 cells [3]; MCF7, with HRG",restored sensitivity
same,effect of adding seribantumab on proliferation,"MCF7 cells [3]; MCF7 treated with fulvestrant, estradiol and HRG",restoration of the activity of fulvestrant

# From patent US20190091227A1, “METHODS FOR TREATING ER+, HER2-, HRG+ BREAST CANCER USING COMBINATION THERAPIES COMPRISING AN ANTI-ERBB3 ANTIBODY” (Merrimack Pharmaceuticals, Inc., priority 2016, published 2019)
